Results reported in PMC11087051, “Large-scale deorphanization of Nematostella vectensis neuropeptide G protein-coupled receptors supports the independent expansion of bilaterian and cnidarian peptidergic systems” (eLife, 2024).
Residues, ends and D or L forms follow the SMILES beside them. No end group written: not given here.

Assay: Maximal solubility of the synthetic peptides in water and in DMSO (sheet Peptide_mixes)
Format: physicochemical
Conditions: for max solve (DMSO): in DMSO, number in brackets in the cell; for max solve water: in water, number before the bracket in the cell
Excerpt: Supplement elife-90674-supp3.xlsx, sheet "Peptide_mixes"

Compound | max solve (DMSO) | max solve water
QPGNMKVWSDPF [PNX12] | 5 mg/mL | 0 mg/mL
CC[C@H](C)[C@H](NC(=O)[C@H](Cc1c[nH]cn1)NC(=O)[C@H](Cc1ccccc1)NC(=O)[C@H](Cc1ccc(O)cc1)NC(=O)[C@H](C)NC(=O)[C@@H]1CCCN1C(=O)[C@@H](NC(=O)[C@H](CC(C)C)NC(=O)[C@H](CC(=O)O)NC(=O)[C@H](CC(C)C)NC(=O)[C@H](Cc1ccc(O)cc1)NC(=O)[C@@H]1CCCN1C(=O)[C@@H]1CCCN1C(=O)[C@@H]1CCC(=O)N1)[C@@H](C)O)C(=O)N[C@@H](CCCNC(=N)N)C(N)=O [HIRa3] (HELM PEPTIDE1{[Glp].P.P.Y.L.D.L.T.P.A.Y.F.H.I.R.[am]}$$$$V2.0) | 10 mg/mL | 5 mg/mL
C[C@H](NC(=O)[C@H](CCCCN)NC(=O)[C@H](Cc1ccccc1)NC(=O)[C@@H](N)Cc1ccccc1)C(N)=O [FFKAa] (H-FFKA-NH2) | 10 (10) mg/ml | 10 (10) mg/ml
CSCC[C@H](NC(=O)[C@H](CC(C)C)NC(=O)CNC(=O)[C@@H]1CCC(=O)N1)C(=O)N[C@@H](Cc1ccccc1)C(=O)N[C@@H](CCCNC(=N)N)C(=O)N1CCC[C@H]1C(N)=O [FRPa2] (HELM PEPTIDE1{[Glp].G.L.M.F.R.P.[am]}$$$$V2.0) | 10 mg/mL | 5 mg/mL
CC(C)C[C@H](NC(=O)CNC(=O)[C@@H]1CCCN1C(=O)[C@H](C)NC(=O)CNC(=O)[C@H](C)NC(=O)[C@@H]1CCC(=O)N1)C(=O)N[C@@H](Cc1c[nH]c2ccccc12)C(N)=O [GLWa1] (HELM PEPTIDE1{[Glp].A.G.A.P.G.L.W.[am]}$$$$V2.0) | 10 mg/mL | 5 mg/mL
LPPRFGGQI-NH2 [QIa] | 10 mg/mL | 5 mg/mL
CC[C@H](C)[C@H](NC(=O)[C@@H]1CCC(=O)N1)C(=O)N[C@H](C(=O)N[C@@H](CCCNC(=N)N)C(=O)N[C@@H](Cc1ccccc1)C(N)=O)[C@@H](C)O [RFa0] (HELM PEPTIDE1{[Glp].I.T.R.F.[am]}$$$$V2.0) | 5 (5) mg/ml | 5 (5) mg/ml
RSNRVVIHTGANPTMAPLRIPF-NH2 [IPFa] | 10 mg/mL | 5 mg/mL
DSSPPQW [QW2] | 10 mg/mL | 5 mg/mL
CC(C)C[C@H](NC(=O)[C@H](Cc1c[nH]cn1)NC(=O)[C@H](CO)NC(=O)[C@H](CC(C)C)NC(=O)[C@@H]1CCCN1C(=O)[C@@H]1CCCN1C(=O)[C@@H]1CCC(=O)N1)C(=O)N[C@@H](CO)C(N)=O [HLSa] (HELM PEPTIDE1{[Glp].P.P.L.S.H.L.S.[am]}$$$$V2.0) | 5 mg/mL | 0 mg/mL
GPPGLW-NH2 [GLWa3] | 10 mg/mL | 5 mg/mL
CC(C)C[C@H](NC(=O)[C@@H](N)Cc1ccccc1)C(=O)N[C@@H](CCCNC(=N)N)C(=O)N[C@@H](CC(N)=O)C(N)=O [FLRNa] (H-FLRN-NH2) | 10 (10) mg/ml | 10 (10) mg/ml
MPEQDANPQTRFD-NH2 [RFa2] | 10 mg/mL | 5 mg/mL
GPPMIKIPVRH-NH2 [VRHa] | 10 (10) mg/ml | 10 (10) mg/ml
GPPQGLRW-NH2 [LRWa3] | 5 (5) mg/ml | 5 (5) mg/ml
YPPFLELGQPSYFHIR-NH2 [HIRa2] | 10 mg/mL | 5 mg/mL
TPPQW [QW1] | 10 mg/mL | 2 mg/mL
WPPRP-NH2 [FRPa1] | 10 (10) mg/ml | 10 (10) mg/ml
CC(C)C[C@H](NC(=O)[C@H](CO)NC(=O)[C@H](CCC(=O)O)NC(=O)CNC(=O)[C@H](CC(=O)O)NC(=O)[C@@H](NC(=O)[C@H](CCC(=O)O)NC(=O)[C@@H]1CCC(=O)N1)[C@@H](C)O)C(=O)N[C@@H](CCCCN)C(=O)N[C@@H](CCCCN)C(=O)N[C@@H](C)C(=O)N[C@@H](CCC(=O)O)C(=O)N[C@@H](CCC(=O)O)C(=O)N[C@@H](CCC(=O)O)C(=O)N[C@@H](Cc1ccccc1)C(=O)N[C@H](C(=O)O)C(C)C [EFV] (HELM PEPTIDE1{[Glp].E.T.D.G.E.S.L.K.K.A.E.E.E.F.V}$$$$V2.0) | 10 mg/mL | 5 mg/mL
CC[C@H](C)[C@H](NC(=O)[C@@H]1CCCN1C(=O)[C@@H](NC(=O)[C@H](CCCNC(=N)N)NC(=O)[C@H](Cc1ccccc1)NC(=O)[C@@H]1CCCN1C(=O)[C@@H]1CCCN1C(=O)[C@@H]1CCC(=O)N1)[C@@H](C)CC)C(N)=O [pIPIa] (HELM PEPTIDE1{[Glp].P.P.F.R.I.P.I.[am]}$$$$V2.0) | 10 mg/mL | 0 mg/mL
CC(C)C[C@H](NC(=O)CNC(=O)[C@@H]1CCCN1C(=O)[C@@H]1CCCN1C(=O)CNC(=O)[C@H](C)NC(=O)[C@@H]1CCC(=O)N1)C(=O)N[C@@H](Cc1c[nH]c2ccccc12)C(N)=O [GLWa2] (HELM PEPTIDE1{[Glp].A.G.P.P.G.L.W.[am]}$$$$V2.0) | 10 (10) mg/ml | 10 (10) mg/ml

Compound | max solve (DMSO) | max solve water
GPPPIYLPVRP-NH2 [RHa3] | 10 (10) mg/ml | 10 (10) mg/ml
CC(C)C[C@H](NC(=O)CNC(=O)[C@@H]1CCCN1C(=O)[C@@H]1CCCN1C(=O)[C@@H](N)CS)C(=O)N[C@@H](Cc1c[nH]c2ccccc12)C(=O)N[C@@H](CS)C(N)=O [Am_CCa] (H-CPPGLWC-NH2) | 10 mg/mL | 5 mg/mL
IPPQGFRFSQW-NH2 [QWa] | 10 mg/mL | 0 mg/mL
YPPLNTV-NH2 [NTVa] | 10 mg/mL | 5 mg/mL
GPRGGREVNLEGPRG-NH2 [PRGa2] | 5 (5) mg/ml | 5 (5) mg/ml
APGLW-NH2 [GLWa4] | 10 (10) mg/ml | 10 (10) mg/ml
N=C(N)NCCC[C@H](NC(=O)[C@@H]1CCCN1C(=O)CN)C(=O)NCC(N)=O [PRGa] (H-GPRG-NH2) | 10 (10) mg/ml | 10 (10) mg/ml
N=C(N)NCCC[C@H](NC(=O)CNC(=O)[C@@H]1CCC(=O)N1)C(=O)N[C@@H](Cc1ccccc1)C(N)=O [QGRFa] (HELM PEPTIDE1{[Glp].G.R.F.[am]}$$$$V2.0) | 10 mg/mL | 5 mg/mL
APPGNGEGEAGFIPWFS-NH2 [WFSa] | 2 mg/mL | 0 mg/mL
CC(C)C[C@@H]1NC(=O)CNC(=O)[C@@H]2CCCN2C(=O)[C@@H]2CCCN2C(=O)[C@@H](NC(=O)[C@@H]2CCC(=O)N2)CSSC[C@@H](C(=O)O)NC(=O)CNC(=O)[C@H](Cc2c[nH]c3ccccc23)NC1=O [GLWGcc] (HELM PEPTIDE1{[Glp].C.P.P.G.L.W.G.C}$PEPTIDE1,PEPTIDE1,2:R3-9:R3$$$V2.0) | 10 mg/mL | 2 mg/mL
CC(C)C[C@H](NC(=O)[C@H](Cc1ccc(O)cc1)NC(=O)[C@@H]1CCC(=O)N1)C(=O)N[C@@H](CC(=O)O)C(=O)N1CCC[C@H]1C(=O)N[C@@H](CCCNC(=N)N)C(=O)N1CCC[C@H]1C(N)=O [RHa5] (HELM PEPTIDE1{[Glp].Y.L.D.P.R.P.[am]}$$$$V2.0) | 15 mg/mL | 10 mg/mL
IPPQGLRFNQW-NH2 [QWa2] | 10 mg/mL | 5 mg/mL
CC(C)C[C@H](NC(=O)[C@@H]1CCC(=O)N1)C(=O)N[C@@H](Cc1ccccc1)C(=O)N[C@@H](CCCNC(=N)N)C(=O)N1CCC[C@H]1C(N)=O [FRPa4] (HELM PEPTIDE1{[Glp].L.F.R.P.[am]}$$$$V2.0) | 10 (10) mg/ml | 10 (10) mg/ml
APRGGRDAPRG-NH2 [PRGa5] | 10 (10) mg/ml | 10 (10) mg/ml
CC(C)[C@H](NC(=O)[C@H](CCCNC(=N)N)NC(=O)[C@H](Cc1ccc(O)cc1)NC(=O)[C@@H](N)Cc1ccccc1)C(N)=O [FYRVa] (H-FYRV-NH2) | 10 mg/mL | 2 mg/mL
SPWSCSLRP-NH2 [LRPa1] | 10 (10) mg/ml | 10 (10) mg/ml
CC(C)C[C@H](NC(=O)CNC(=O)[C@@H]1CCCN1C(=O)[C@@H]1CCCN1C(=O)[C@H](CS)NC(=O)[C@@H]1CCC(=O)N1)C(=O)N[C@@H](Cc1c[nH]c2ccccc12)C(=O)NCC(=O)N[C@@H](CS)C(=O)O [GLWG] (HELM PEPTIDE1{[Glp].C.P.P.G.L.W.G.C}$$$$V2.0) | 10 (10) mg/ml | 10 (10) mg/ml
CC[C@H](C)[C@H](NC(=O)[C@H](Cc1c[nH]cn1)NC(=O)[C@H](Cc1ccccc1)NC(=O)[C@H](Cc1ccccc1)NC(=O)[C@H](CO)NC(=O)[C@@H]1CCCN1C(=O)[C@H](CCC(=O)O)NC(=O)CNC(=O)[C@H](CC(C)C)NC(=O)[C@H](CC(=O)O)NC(=O)[C@H](CC(C)C)NC(=O)[C@H](Cc1ccc(O)cc1)NC(=O)[C@@H]1CCCN1C(=O)[C@@H]1CCCN1C(=O)[C@@H]1CCC(=O)N1)C(=O)N[C@@H](CCCNC(=N)N)C(N)=O [HIRa1] (HELM PEPTIDE1{[Glp].P.P.Y.L.D.L.G.E.P.S.F.F.H.I.R.[am]}$$$$V2.0) | 10 (10) mg/ml | 10 (10) mg/ml
GYYRDNIQETRQYLDPRP-NH2 [RHa4] | 10 mg/mL | 5 mg/mL
CC(C)C[C@H](NC(=O)[C@H](CO)NC(=O)[C@H](C)NC(=O)[C@@H](NC(=O)[C@H](CC(=O)O)NC(=O)[C@H](CC(N)=O)NC(=O)[C@H](CCC(=O)O)NC(=O)[C@H](CO)NC(=O)[C@@H](NC(=O)[C@H](CCC(=O)O)NC(=O)[C@H](CO)NC(=O)[C@@H](NC(=O)[C@H](CO)NC(=O)[C@@H]1CCCN1C(=O)[C@H](CC(C)C)NC(=O)[C@@H]1CCC(=O)N1)C(C)C)C(C)C)C(C)C)C(=O)N[C@@H](CC(C)C)C(=O)N[C@@H](CCCNC(=N)N)C(=O)N[C@@H](CCC(=O)O)C(=O)O [LRE] (HELM PEPTIDE1{[Glp].L.P.S.V.S.E.V.S.E.N.D.V.A.S.L.L.R.E}$$$$V2.0) | 5 mg/mL | 0 mg/mL
